The values that follow come from ChEMBL document CHEMBL4483862, “Open-source discovery of chemical leads for next-generation chemoprotective antimalarials” (2018).

In the assay the test system is Plasmodium berghei. Kind of assay: Luciferase/luciferin-expressing antifolate-resistant parasites were used to infect a culture of HepG2 cells that were pre-incubated with compounds. Infected hepatocytes emit light due to the luciferase reaction. Assay results are presented as the percent inhibition of light emission compared to control. […]. Type of assay: functional. To be noted: sporozoite; for IC90: read-out: LUCIFERASE INFECTION ASSAY - IC90.

[1] abbreviates: read-out: LUCIFERASE INFECTION ASSAY - IC50.

SMILES strings stand for the structures. Some results are limits rather than exact numbers.

A word on the IC50: it is the midpoint of a concentration-inhibition curve. Broadly, the IC90 is the point of the concentration-response curve where the effect stands at 90%.

As for `O=C(Nc1ccc(OC(F)(F)F)cc1)Nc1ccc(Sc2ccc(Cl)cc2)nc1`, the IC90 is more than 7.5 µM. The IC50 (HEPG2TOX_HILL_SLOPE 6.6, HEPG2TOX_R_SQUARED 0.793, PBLUC_HILL_SLOPE 3.54, PBLUC_R_SQUARED 0.066, read-out: LUCIFERASE INFECTION ASSAY - IC50) was 6.05 µM.

Take `CC(C)N1/C(=C\c2ccccc2O)C(=O)c2ccccc2S1(=O)=O`: the IC90 is more than 9.61 µM. Further, under “HEPG2TOX_HILL_SLOPE 2.04, HEPG2TOX_R_SQUARED 0.975, PBLUC_HILL_SLOPE 1.99, PBLUC_R_SQUARED 0.616, read-out: LUCIFERASE INFECTION ASSAY - IC50”, the IC50 came to 3.26 µM.

Consider `COC(=O)CSCCc1nc(-c2ccc(C(F)(F)F)cc2)cs1`, for which the IC90 was 8.8 µM. Moreover, the IC50 (PBLUC_HILL_SLOPE 1.19, PBLUC_R_SQUARED 0.68, read-out: LUCIFERASE INFECTION ASSAY - IC50) is 1.39 µM.

For `CN1C(=O)N(CCCc2ccncc2)C(=O)C12CCN(Cc1ccc(N3CCCC3)cc1)CC2`, the IC90 came out at 2.98 µM. Moreover, the IC50 (HEPG2TOX_HILL_SLOPE 1.82, HEPG2TOX_R_SQUARED 0.908, PBLUC_HILL_SLOPE 12.5, PBLUC_R_SQUARED 0.321, read-out: LUCIFERASE INFECTION ASSAY - IC50) stood at 2.5 µM.

In the case of `CCOC(=O)c1c(S(=O)(=O)Nc2ccc(OC(F)(F)F)cc2)c(-c2ccccc2)n(-c2ccccc2)c1C`, the IC90 is more than 6.06 µM. Besides, where the note is “HEPG2TOX_HILL_SLOPE 3.6, HEPG2TOX_R_SQUARED 0.938, PBLUC_HILL_SLOPE 3.83, PBLUC_R_SQUARED 0.0999, read-out: LUCIFERASE INFECTION ASSAY - IC50”, the concentration for half-maximal inhibition (IC50) stood at 3.44 µM.

As for `CCOc1ccccc1NC(=O)c1nc(-c2ccccc2)n(-c2ccccc2)n1`, the IC90 was found to be 3.4 µM. Where the note is “PBLUC_HILL_SLOPE 61.7, PBLUC_R_SQUARED 0.143, read-out: LUCIFERASE INFECTION ASSAY - IC50”, the IC50 came to 3.28 µM.

With `Cn1cc(Br)c(-c2cccc(NC(=O)Nc3ccc(Cl)cc3)c2)n1`, the IC90 was more than 8.13 µM. In addition, the IC50 (HEPG2TOX_HILL_SLOPE 7.05, HEPG2TOX_R_SQUARED 0.913, PBLUC_HILL_SLOPE 7.26, PBLUC_R_SQUARED 0.779, read-out: LUCIFERASE INFECTION ASSAY - IC50) is more than 8.13 µM.

As to `Cc1nn(-c2ccccc2)c(C)c1CN(C)S(=O)(=O)c1ccc(C#N)cc1`, the IC90 is 0.36 µM. Further, the IC50 (PBLUC_HILL_SLOPE 18, PBLUC_R_SQUARED 0.548, read-out: LUCIFERASE INFECTION ASSAY - IC50) turned out to be 0.318 µM.

Turning to `N#C/C(=N\Nc1cccc(C(F)(F)F)c1)C(=O)C1CC1`, the IC90 was 10.7 µM. For the same compound, the IC50 (HEPG2TOX_HILL_SLOPE 1.67, HEPG2TOX_R_SQUARED 0.925, PBLUC_HILL_SLOPE 4.09, PBLUC_R_SQUARED 0.467, read-out: LUCIFERASE INFECTION ASSAY - IC50) was determined as 6.27 µM.

For `COc1ccc(-c2cnc3cnc(-c4ccc(C(=O)NC5CC5)cc4)cn23)cn1`, the IC90 was more than 8.56 µM. For the setting “PBLUC_HILL_SLOPE 21.9, PBLUC_R_SQUARED 0.538, read-out: LUCIFERASE INFECTION ASSAY - IC50”, the IC50 was 7.8 µM.

For the compound `Cc1ccc(-c2cc(C(=O)NNC(=O)CC34CC5CC(CC(C5)C3)C4)c3ccccc3n2)cc1`, the IC90 was more than 10 µM. For the same compound, the concentration for half-maximal inhibition (IC50) under setting [1] was more than 10 µM.

In the case of `Cc1cc(C)cc(-n2c(SCc3nc4ccccc4n3C(F)F)nc3ccccc3c2=O)c1`, the concentration for an effect of 90% (IC90) is more than 10 µM. Further, the half-maximal inhibitory concentration (IC50) under setting [1] was more than 10 µM.

Turning to `Cc1ccc2nc(NC(=O)c3cccc(C(F)(F)F)c3)c(C(=O)NC3CCCCC3)n2c1`, the IC90 amounted to 0.579 µM. Further, the IC50 (FFLUC_HILL_SLOPE 2.54, FFLUC_R_SQUARED 0.701, HEPG2TOX_HILL_SLOPE 1.03, HEPG2TOX_R_SQUARED 0.261, PBLUC_HILL_SLOPE 2.67, PBLUC_R_SQUARED 0.838, read-out: LUCIFERASE INFECTION ASSAY - IC50) was found to be 0.254 µM.

Take `O=C(Nc1ccc2nc(Cc3ccccc3)nn2c1)c1cccc(Cl)c1`: the IC90 worked out at 1.48 µM. Under “HEPG2TOX_HILL_SLOPE 2.06, HEPG2TOX_R_SQUARED 0.967, PBLUC_HILL_SLOPE 11.3, PBLUC_R_SQUARED 0.609, read-out: LUCIFERASE INFECTION ASSAY - IC50”, the IC50 is 1.22 µM.

For the compound `Cc1nn(C)c2nc(C3CC3)cc(C(=O)Nc3ccccc3C(=O)NC(C)c3ccccc3)c12` (stereo not given), the IC90 is more than 10 µM. In addition, the IC50 under setting [1] came to 8.82 µM.

Turning to `COc1ccc(N(CCC(N)=O)CC(=O)NC(C)c2ccccc2OC)cc1` (stereo not given), the IC90 is more than 10 µM. Under setting [1], the IC50 was more than 10 µM.

As for `COc1ccc(S(=O)(=O)Nc2ccccc2C(=O)NNC(=O)c2ccccc2O)cc1`, the IC90 stood at 4.69 µM. Also, the IC50 (HEPG2TOX_HILL_SLOPE 4.15, HEPG2TOX_R_SQUARED 0.834, PBLUC_HILL_SLOPE 17, PBLUC_R_SQUARED 0.564, read-out: LUCIFERASE INFECTION ASSAY - IC50) stood at 4.12 µM.

For the compound `CO[C@H]1[C@H](C)O[C@@H](O[C@H]2CC[C@]3(C)C4C[C@@H](O)[C@]5(C)[C@@H](C6=CC(=O)OC6)[C@@H](OC(C)=O)C[C@]5(O)C4CC[C@@H]3C2)C[C@@H]1O` (stereo not given in full), the 90% effect concentration (IC90) was 0.626 µM. Also, the IC50 (HEPG2TOX_HILL_SLOPE 2.15, HEPG2TOX_R_SQUARED 0.965, PBLUC_HILL_SLOPE 1.44, PBLUC_R_SQUARED 0.806, read-out: LUCIFERASE INFECTION ASSAY - IC50) turned out to be 0.136 µM.

Turning to `COc1cc(NC(=O)c2sccc2Oc2ccccc2[N+](=O)[O-])c(Cl)cc1Cl`, the IC90 was more than 7.51 µM. Further, the IC50 under setting [1] is more than 7.51 µM.

Consider `CNC(=O)c1ccc(CN(Cc2ccco2)Cc2cccc3cccnc23)cc1`, for which the IC90 is more than 10 µM. Moreover, the IC50 under setting [1] was more than 10 µM.

Regarding `COc1cccc(N2C(=O)C=CC2=O)c1`, the concentration for an effect of 90% (IC90) was more than 16.2 µM. Moreover, the IC50 (FFLUC_HILL_SLOPE 1.51, FFLUC_R_SQUARED 0.52, PBLUC_HILL_SLOPE 2.51, PBLUC_R_SQUARED 0.451, read-out: LUCIFERASE INFECTION ASSAY - IC50) turned out to be 10.2 µM.

Turning to `CC(Nc1ccc(C(F)(F)F)cc1[N+](=O)[O-])C(=O)Nc1ccccc1C(=O)Nc1cccc(Cl)c1` (stereo not given), the 90% effect concentration (IC90) is more than 10 µM. The half-inhibitory concentration (IC50) under setting [1] was more than 10 µM.

`COc1cc(-c2cc(-c3cc(C)c(O)c(C)c3)cnc2N)ccc1O`: the IC90 was 3.93 µM. For the same compound, the concentration for half-maximal inhibition (IC50) (HEPG2TOX_HILL_SLOPE 11.4, HEPG2TOX_R_SQUARED 0.062, PBLUC_HILL_SLOPE 8, PBLUC_R_SQUARED 0.677, read-out: LUCIFERASE INFECTION ASSAY - IC50) amounted to 2.99 µM.

Consider `COc1ccc(CCNc2nc(CN3CCCC3)nc3sc(C)c(C)c23)cc1`, for which the 90% effect concentration (IC90) was more than 10 µM. Moreover, under “FFLUC_HILL_SLOPE 4.5, FFLUC_R_SQUARED 0.668, PBLUC_HILL_SLOPE 16.9, PBLUC_R_SQUARED 0.0613, read-out: LUCIFERASE INFECTION ASSAY - IC50”, the IC50 came out at 9.78 µM.

On to `CNS(=O)(=O)c1cc(C(=O)OCc2ccc(-c3ccccc3C#N)cc2)n(C)c1`, for which the IC90 is more than 10 µM. Moreover, under “HEPG2TOX_HILL_SLOPE 9.24, HEPG2TOX_R_SQUARED 0.528, PBLUC_HILL_SLOPE 2.62, PBLUC_R_SQUARED 0.748, read-out: LUCIFERASE INFECTION ASSAY - IC50”, the IC50 was determined as 5.4 µM.

For `Cc1ccc(C(=O)Nc2ccccc2Sc2ncc([N+](=O)[O-])s2)cc1`, the IC90 was more than 8.88 µM. For the same compound, under “FFLUC_HILL_SLOPE 77.3, FFLUC_R_SQUARED 0.701, read-out: LUCIFERASE INFECTION ASSAY - IC50”, the IC50 is more than 8.88 µM.

On to `COc1ccc(OCc2noc(CN3CCc4ccccc43)n2)cc1`, for which the IC90 was more than 2 µM. The IC50 under setting [1] was more than 2 µM.

Turning to `CCOc1ccc(C(=O)c2c(-c3ccccc3)c3c4n(c(COc5cc(C)ccc5C(C)C)nn24)CCCC3)cc1`, the IC90 is more than 10 µM. Besides, the IC50 under setting [1] was 8.64 µM.

For the compound `Cc1ccc(O)c(C(=O)NCC(C)c2ccccc2)c1` (stereo not given), the 90% effect concentration (IC90) was 9.34 µM. Besides, the IC50 (HEPG2TOX_HILL_SLOPE 0.817, HEPG2TOX_R_SQUARED 0.794, PBLUC_HILL_SLOPE 3.45, PBLUC_R_SQUARED 0.175, read-out: LUCIFERASE INFECTION ASSAY - IC50) came out at 4.94 µM.

Turning to `COc1ccc(-c2cc(CN(C)c3ccc(S(=O)(=O)NC(C)(C)C)cc3[N+](=O)[O-])on2)cc1`, the IC90 was found to be 4.2 µM. Also, the IC50 (HEPG2TOX_HILL_SLOPE 80.3, HEPG2TOX_R_SQUARED 0.674, PBLUC_HILL_SLOPE 12.7, PBLUC_R_SQUARED 0.427, read-out: LUCIFERASE INFECTION ASSAY - IC50) turned out to be 3.54 µM.

Regarding `Cn1ccnc1S/C(=C/C=C(C#N)C#N)c1ccc(Cl)cc1`, the IC90 is more than 10.1 µM. Under “HEPG2TOX_HILL_SLOPE 6.6, HEPG2TOX_R_SQUARED 0.647, PBLUC_HILL_SLOPE 3.43, PBLUC_R_SQUARED 0.702, read-out: LUCIFERASE INFECTION ASSAY - IC50”, the IC50 stood at 5.57 µM.

Take `Cc1ccc(S(=O)(=O)Oc2ccccc2/C=N/N=C2\NC(=O)CS2)cc1Cl`: the IC90 was more than 10 µM. Further, for the setting “HEPG2TOX_HILL_SLOPE 8.05, HEPG2TOX_R_SQUARED 0.112, PBLUC_HILL_SLOPE 0.841, PBLUC_R_SQUARED 0.28, read-out: LUCIFERASE INFECTION ASSAY - IC50”, the IC50 was more than 10 µM.

Regarding `O=C(Nc1ccc(Cl)cc1)Nc1cc(Cl)c(-n2cccc2)cc1Cl`, the IC90 is more than 8.67 µM. The IC50 (FFLUC_HILL_SLOPE 11.8, FFLUC_R_SQUARED 0.707, PBLUC_HILL_SLOPE 1.68, PBLUC_R_SQUARED 0.178, read-out: LUCIFERASE INFECTION ASSAY - IC50) is 6.82 µM.

With `COCC(C)n1c(C)cc(C(=O)CSc2ncnc3sc(C)c(C)c23)c1C` (stereo not given), the IC90 was more than 10 µM. In addition, the concentration for half-maximal inhibition (IC50) under setting [1] was more than 10 µM.

As to `O=C(Nc1nc2c(F)cc(F)cc2s1)c1cnccn1`, the IC90 is more than 10 µM. Besides, the IC50 under setting [1] is more than 10 µM.
